Experimental findings from article PMC12596731, “Cys–Lys stapling for unprotected peptides via tunable linkers” (National Science Review, 2025) are described below.

The nature of series [1]: Cys-Lys stapling of unprotected peptides with unsymmetrical linker (1.5 equiv): Cys thiol displaces phthalimide from N-thiophthalimide (disulfide, ~1 min), then ring closure by Lys amine attack on pentafluorophenyl ester with DIPEA (4 equiv). The settings on record: the molecule shown is the open-chain precursor, CH3CN:H2O 3:1, 25.0 °C, 0.167 h.
Series [2] relates to human bladder cancer cells. The series is classed as cell-based. To be noted: 48 h. As for the experimental part:
XI. Biological Experiments
Cell Counting Kit (CCK-8) was used to evaluate the proliferation inhibition activity of the compounds, and the half inhibitory concentration IC50 value was determined by single-concentration primary screening and multi-concentration.
Fetal Bovine Serum (FBS) 04-001-1acs, Biological industries; PBS phosphate buffer (PB180327), penicillin-streptomycin sulfate double resistant mixture (100× ) […]
Leibovitz's L-15 medium (PM151010), Wuhan Punosai Life Technology Co., LTD.
CCK-8 Kit, Biosharp life sciences; Trypsin-edta Digestive Solution (05200-056), GIBCO; Cellular DMSO (D2650 -100ML), SIGMA; 96-well cell culture plate, Corning Life Sciences (Wujiang) Co., LTD. 25, 75cm2 cell culture bottle, Corning Life Sciences (Wujiang) Co., LTD. Blood cell counting plate, Shanghai Qiujing Biochemical Reagent Instrument Co., LTD. Cisplatin (D8810), Solarbio life sciences;
Instruments and equipment
Super clean workbench (sw-cj-2fd), Sujing Aetna; Microscope (nib -100), Ningbo Yongxin Optical Co., Ltd; Carbon dioxide cell incubator (MCO -18AC), Phcbi; Electric constant temperature water bath pot (HWS -24), Shanghai Yiheng Technology Co., Ltd; Multifunctional microplate reader (Multiskan MK3), Thermo; One ten-thousandth balance (MS105DU), METTLER; Centrifuge (TD4N), ChangshaYingtai Instrument Co., Ltd; Mixer (SCI-VS), Selo Czech Republic, USA.
The samples were dissolved in the cell -grade DMSO after accurately weighing to generate the 10 mM drug solution. The drug solution was further diluted to tenfold detection concentration by cell culture medium.
Standard Operation Procedure
Detection principle of cytotoxicity (CCK -8 method):
The detection principle is that the CCK-8 reagent contains WST-8, which is reduced S52 to a highly water-soluble yellow methyl product (formazan) by dehydrogenase in the cell mitochondria under the action of electron carrier 1-methoxy-5-methylphenazine dimethyl sulfate (1-methoxy PMS). The number of the nail products produced is directly proportional to the number of living cells.
(1) Inoculate cells: The cells were prepared into single cell suspension with the culture medium containing 10% fetal bovine serum, and the 96 well plates were inoculated with 90 uL cell culture medium (Adherent cell viewed 5×10^4/mL and Suspension cell viewed 9×10^4/mL) per well, then cultured at 5% CO2 and 37 ℃ for 24 hours.
(2) Add the sample solution to be tested: Add 10 µL sample solution to each well. One concentration was set for each sample during preliminary screening and three multiple holes were set for each concentration. Eight concentration gradients were set for each sample for IC50 determination and three multiple holes were set for each concentration.
The 96 well plates were cultured at 5% CO2 and 37 ℃ for 48 hours. The experiment was divided into a blank group, control group and drug group.
(3) Color development: The old culture medium and drug solution of adherent cells were sucked out, then 100 µL of CCK-8 solution (diluted ten times with the basic medium) was added and the suspension cells were directly added 10 µL of CCK-8 stock solution. Culture at 37 ℃ with 5% CO2 for 1-4 h (dark operation, real-time observation).
(4) Result detection: The absorbance was measured at 450 nm with an enzyme labeling instrument and the original data and results were recorded.
(5) The toxicity is expressed by cell inhibition, and the calculation formula is as follows:
Cell inhibition (%) = (ODControl-ODDrug) / (ODControl-ODBlank)×100%. The IC50 was calculated by the software graphpad prism 8 (version 8.0.2, from GraphPad SoftwareInc)，and the experimental results are expressed in ± SD.
6) Positive control: Cisplatin.

Structures are written as SMILES.

In the case of `CC(=O)N[C@@H](CCC(N)=O)C(=O)N[C@@H](CO)C(=O)N[C@@H](CCC(N)=O)C(=O)N[C@@H](CCC(N)=O)C(=O)N[C@H](C(=O)N[C@@H](Cc1ccccc1)C(=O)N[C@@H](CSS/C(=C/Cl)CCCCCCCCC(=O)Oc1c(F)c(F)c(F)c(F)c1F)C(=O)N[C@@H](CC(N)=O)C(=O)N[C@@H](CC(C)C)C(=O)N[C@@H](Cc1c[nH]c2ccccc12)C(=O)N[C@@H](CCCNC(=N)N)C(=O)N[C@@H](CC(C)C)C(=O)N[C@@H](CC(C)C)C(=O)N[C@@H](CCCCN)C(=O)N[C@@H](CCC(N)=O)C(=O)N[C@@H](CC(N)=O)C(N)=O)[C@@H](C)O`, the ring closure, isolated yield in series [1] (40-membered ring) came out at 75%.

As to `CC[C@H](C)[C@H](NC(=O)[C@@H]1CCCN1C(=O)[C@H](CSS/C(=C/Cl)CCCC(=O)Oc1c(F)c(F)c(F)c(F)c1F)NC(C)=O)C(=O)N[C@@H](CCSC)C(=O)N[C@@H](CCC(=O)O)C(=O)N[C@@H](CC(=O)O)C(=O)N[C@@H](CCCNC(=N)N)C(=O)N[C@@H](CCCCN)C(=O)N1CCC[C@H]1C(N)=O` [Ac-Cys(S-linker 3b-OPfp)-Pro-Ile-Met-Glu-Asp-Arg-Lys-Pro-NH2], the ring closure, isolated yield in series [1] (35-membered ring) came out at 81%.

As for `CC[C@H](C)[C@H](NC(=O)[C@@H]1CCCN1C(=O)[C@H](CSS/C(=C/Cl)CCCCCC(=O)Oc1c(F)c(F)c(F)c(F)c1F)NC(C)=O)C(=O)N[C@@H](CCSC)C(=O)N[C@@H](CCC(=O)O)C(=O)N[C@@H](CC(=O)O)C(=O)N[C@@H](CCCNC(=N)N)C(=O)N[C@@H](CCCCN)C(=O)N1CCC[C@H]1C(N)=O` [Ac-Cys(S-linker 3d-OPfp)-Pro-Ile-Met-Glu-Asp-Arg-Lys-Pro-NH2], the ring closure, isolated yield in series [1] (37-membered ring) was found to be 78%.

`CC[C@H](C)[C@H](NC(=O)[C@@H]1CCCN1C(=O)[C@H](CSS/C(=C/Cl)COCC(=O)Oc1c(F)c(F)c(F)c(F)c1F)NC(C)=O)C(=O)N[C@@H](CCSC)C(=O)N[C@@H](CCC(=O)O)C(=O)N[C@@H](CC(=O)O)C(=O)N[C@@H](CCCNC(=N)N)C(=O)N[C@@H](CCCCN)C(=O)N1CCC[C@H]1C(N)=O` [Ac-Cys(S-linker 3f-OPfp)-Pro-Ile-Met-Glu-Asp-Arg-Lys-Pro-NH2]: the ring closure, isolated yield in series [1] (35-membered ring) is 75%.

As for `CC[C@H](C)[C@H](NC(=O)[C@@H]1CCCN1C(=O)[C@H](CSS/C(=C/Cl)CCOc1ccccc1C(=O)Oc1c(F)c(F)c(F)c(F)c1F)NC(C)=O)C(=O)N[C@@H](CCSC)C(=O)N[C@@H](CCC(=O)O)C(=O)N[C@@H](CC(=O)O)C(=O)N[C@@H](CCCNC(=N)N)C(=O)N[C@@H](CCCCN)C(=O)N1CCC[C@H]1C(N)=O` [Ac-Cys(S-linker 3i-OPfp)-Pro-Ile-Met-Glu-Asp-Arg-Lys-Pro-NH2], the ring closure, isolated yield in series [1] (37-membered ring) was 65%.

Take `CC[C@H](C)[C@H](NC(=O)[C@@H]1CCCN1C(=O)[C@H](CSS/C(=C/Cl)CCOc1cccc(C(=O)Oc2c(F)c(F)c(F)c(F)c2F)c1)NC(C)=O)C(=O)N[C@@H](CCSC)C(=O)N[C@@H](CCC(=O)O)C(=O)N[C@@H](CC(=O)O)C(=O)N[C@@H](CCCNC(=N)N)C(=O)N[C@@H](CCCCN)C(=O)N1CCC[C@H]1C(N)=O` [Ac-Cys(S-linker 3k-OPfp)-Pro-Ile-Met-Glu-Asp-Arg-Lys-Pro-NH2]: in series [1] (38-membered ring), the ring closure, isolated yield was 72%.

As for `CC[C@H](C)[C@H](NC(=O)[C@@H]1CCCN1C(=O)[C@H](CSS/C(=C/Cl)CCOc1ccc(C(=O)Oc2c(F)c(F)c(F)c(F)c2F)cc1)NC(C)=O)C(=O)N[C@@H](CCSC)C(=O)N[C@@H](CCC(=O)O)C(=O)N[C@@H](CC(=O)O)C(=O)N[C@@H](CCCNC(=N)N)C(=O)N[C@@H](CCCCN)C(=O)N1CCC[C@H]1C(N)=O` [Ac-Cys(S-linker 3m-OPfp)-Pro-Ile-Met-Glu-Asp-Arg-Lys-Pro-NH2], in series [1] (39-membered ring), the ring closure, isolated yield was determined as 62%.

In the case of `CC(=O)N[C@@H](CCCCN)C(=O)N[C@@H](C)C(=O)N[C@@H](C)C(=O)N[C@@H](C)C(=O)N[C@@H](CSS/C(=C/Cl)CCC(=O)Oc1c(F)c(F)c(F)c(F)c1F)C(=O)N[C@@H](Cc1ccccc1)C(N)=O` [Ac-Lys-Ala-Ala-Ala-Cys(S-linker 3a-OPfp)-Phe-NH2], in series [1] (25-membered ring), the ring closure, isolated yield was 72%.

On to `CC(=O)N[C@@H](CCCCN)C(=O)N[C@@H](C)C(=O)N[C@@H](C)C(=O)N[C@@H](C)C(=O)N[C@@H](CSS/C(=C/Cl)CCCC(=O)Oc1c(F)c(F)c(F)c(F)c1F)C(=O)N[C@@H](Cc1ccccc1)C(N)=O` [Ac-Lys-Ala-Ala-Ala-Cys(S-linker 3b-OPfp)-Phe-NH2], for which the ring closure, isolated yield in series [1] (26-membered ring) is 76%.

As for `CC(=O)N[C@@H](CCCCN)C(=O)N[C@@H](C)C(=O)N[C@@H](C)C(=O)N[C@@H](C)C(=O)N[C@@H](CSS/C(=C/Cl)CCCCC(=O)Oc1c(F)c(F)c(F)c(F)c1F)C(=O)N[C@@H](Cc1ccccc1)C(N)=O` [Ac-Lys-Ala-Ala-Ala-Cys(S-linker 3c-OPfp)-Phe-NH2], the ring closure, isolated yield in series [1] (27-membered ring) came to 79%.

For `CC(=O)N[C@@H](CCCCN)C(=O)N[C@@H](C)C(=O)N[C@@H](C)C(=O)N[C@@H](C)C(=O)N[C@@H](CSS/C(=C/Cl)c1cccc(C(=O)Oc2c(F)c(F)c(F)c(F)c2F)c1)C(=O)N[C@@H](Cc1ccccc1)C(N)=O` [Ac-Lys-Ala-Ala-Ala-Cys(S-linker 3j-OPfp)-Phe-NH2], the ring closure, isolated yield in series [1] (26-membered ring) amounted to 72%.

Consider `C[C@H](NC(=O)[C@H](C)NC(=O)[C@@H](N)CCCCN)C(=O)N[C@@H](C)C(=O)N[C@@H](CSS/C(=C/Cl)CCC(=O)Oc1c(F)c(F)c(F)c(F)c1F)C(=O)N[C@@H](Cc1ccccc1)C(N)=O` [H-Lys-Ala-Ala-Ala-Cys(S-linker 3a-OPfp)-Phe-NH2], for which, in series [1] (25-membered ring), the ring closure, isolated yield was 68%.

By IC50 is commonly meant the concentration that inhibits the measured activity by half. High values mean weaker potency, low ones greater potency. `CC(=O)N[C@H](C(=O)N[C@@H](CO)C(=O)N[C@@H](Cc1ccccc1)C(=O)N[C@H]1CCCCNC(=O)CC/C(=C\Cl)SSC[C@@H](C(=O)N[C@@H](CC(C)C)C(=O)N[C@@H](CC(C)C)C(=O)N[C@@H](CO)C(=O)N[C@@H](CCCNC(=N)N)C(N)=O)NC(=O)[C@H](Cc2c[nH]c3ccccc23)NC(=O)[C@H](Cc2ccc(O)cc2)NC(=O)[C@H](CCC(N)=O)NC1=O)[C@@H](C)O` [Peptide 5k]: it took 14.6 µM to reach half-maximal inhibition in series [2] (IC50).

On to `CC(=O)N[C@H](C(=O)N[C@@H](CO)C(=O)N[C@@H](Cc1ccccc1)C(=O)N[C@H]1CCCCNC(=O)COC/C(Cl)=C\SSC[C@@H](C(=O)N[C@@H](CC(C)C)C(=O)N[C@@H](CC(C)C)C(=O)N[C@@H](CO)C(=O)N[C@@H](CCCNC(=N)N)C(N)=O)NC(=O)[C@H](Cc2c[nH]c3ccccc23)NC(=O)[C@H](Cc2ccc(O)cc2)NC(=O)[C@H](CCC(N)=O)NC1=O)[C@@H](C)O` [Peptide 5m], for which inhibition in series [2] was half-maximal at 21.7 µM (IC50).

Take `CC(=O)N[C@H](C(=O)N[C@@H](CO)C(=O)N[C@@H](Cc1ccccc1)C(=O)N[C@H]1CCCCNC(=O)c2ccccc2OCC/C(Cl)=C\SSC[C@@H](C(=O)N[C@@H](CC(C)C)C(=O)N[C@@H](CC(C)C)C(=O)N[C@@H](CO)C(=O)N[C@@H](CCCNC(=N)N)C(N)=O)NC(=O)[C@H](Cc2c[nH]c3ccccc23)NC(=O)[C@H](Cc2ccc(O)cc2)NC(=O)[C@H](CCC(N)=O)NC1=O)[C@@H](C)O` [Peptide 5p]: the concentration for half-maximal inhibition (IC50) in series [2] stood at 14.9 µM.
